“And” between values parts separate entries of the source, which are not always exact repeats. Equal values may be shown once. Read-outs that look alike come from different tables or passages of the source. Marks after values point to notes of the source that are not given here.
How the values were obtained:
[1] = tested on: rat tracheal smooth muscle cells (TSMCs); experiment: MTT assay on rat tracheal smooth muscle cells; format: cell-based, Wistar rat; conditions: for cytotoxicity on rat TSMCs: 0.001 to 100 μM, 24 hours, MTT
Description: Tracheal tissue of Wistar rat (200 g to 250 g) was aseptically obtained and connective tissue around the tracheal tissue was removed. […] Supernatant was discarded after centrifugation, and cells were resuspended in 10 ml fresh medium B and cultured on 10 cm cull culture plate to proceed the subsequent experiments. The third to sixth generations of cells were used in the following experiments. Cell concentration was adjusted to 10^4 cells/ml by using a cell counter. Ten thousand cells (1 ml) were inoculated in 24-well culture plate for 24 hours, and cells were attached thereon. Medium B then was added to culture cells for another 24 hours. Subsequently, different concentrations of drugs were added into wells for continuously incubating for 24 hours in low-oxygen incubator. MTT (methylhiazolyldiphenyl-tetrazolium bromide, 100 μl, 5 mg/ml) was added into the wells for darkly reacted for 3 hours at 37° C. Isopropanol of 500 μl was added to solve the […], formazan, after MTT was withdrawn. After 10 minutes, the supernatant ([…]) was transferred to the new 96-well culture plate to determine the absorbance at 540 nm (OD540) and 630 nm (OD630). The effect of drug on cellular growth was evaluated by the value of “OD540-OD630”.

[2] = Pharmacokinetic analysis of MSC in male ICR mice (plasma MSC by LC-MS/MS); format: in vivo; conditions: for Maximum mean plasma concentration of MSC / Minimum mean plasma concentration of MSC / Mean plasma concentration of MSC: ICR mice; for Maximum mean plasma concentration of MSC: 2 min; for Mean plasma concentration of MSC: 2 hours
[3] = for Maximum mean plasma concentration of MSC / Minimum mean plasma concentration of MSC: CD-1 (Crl) mice; for Maximum mean plasma concentration of MSC: 2 min
Description: These pharmaceutical solutions were vortexed and sonicated to be fully dissolved to accomplish the preparation of drugs for i.v. administration.
Male Sprague-Dawley (SD) rats (body weight: 250˜292 g) and male CD-1 (Crl) mice (body weight: 23˜25 g) were purchased from BioLasco Taiwan Co., Ltd., Taiwan, and male ICR mice (body weight: 23˜25 g) were provided from MDS Pharma Services (King of Prussia, Pa., U.S.A.). […] Rats and mice were fasted at least 16 hours prior to oral administration.
Regarding CD-1 (Crl) mice and ICR mice, blood samples were collected by cardiac puncture post i.v. administration for 0, 2, 5, 15, 30 minutes, 1, 1.5, 2, 4, 6, 9, 24 and 27 hours (a total of 13 sampling time points). Blood samples of mice were collected by cardiac puncture before oral administration. Blood samples of three mice were collected at each time point by cardiac puncture post oral administration for 15, 30 minutes, 1, 1.5, 2, 4, 6, 9, 24 and 27 hours (a total of 11 sampling time points). Blood sample (0.5˜0.7 ml) collected by cardiac puncture was placed in a 1.5-ml Eppendorf microcentrifuge tube containing 5 μl of anti-coagulant heparin sodium (5,000 I.U./ml), followed by centrifugation at 12,000 rpm at 4° C. for 10 minutes. The plasma fraction was transferred to a clean microcentrifuge tube and stored at −70° C.
Plasma sample was mixed with acetonitrile and centrifuged, and the supernatant was injected onto an LC column. The pharmacokinetic parameters were calculated from mean plasma concentration by WinNonlin Standard program (version 3.1, Pharsight Corp.).

[4] = Mean plasma concentration of MSC after different dosage forms of Pulmodil in SD rats (3 groups, 8 rats per group); format: in vivo
Text: First, SD rats were divided into 3 groups, 8 rats per group.

[5] = Pharmacokinetic analysis of Pulmodil in male SD rats (plasma MSC by LC-MS/MS); format: in vivo, male Sprague-Dawley (SD) rats; conditions: for Maximum mean plasma concentration of MSC / Minimum mean plasma concentration of MSC / Mean plasma concentration of MSC: SD rats
[6] = MSC single i.v. 2.0 mg/kg, male ICR mice
[7] = MSC single oral 20.0 mg/kg, male ICR mice
[8] = Pulmodil-1 single i.v. 2.0 mg/kg, male CD-1 (Crl) mice
[9] = Pulmodil single i.v. 2.0 mg/kg, male SD rats
[10] = Pulmodil single oral 18.3 mg/kg, male SD rats
[11] = Pulmodil single sublingual 3.4 mg/kg, male SD rats
[12] = Pulmodil-1 single oral 20.0 mg/kg, male CD-1 (Crl) mice

SMILES: Cn1c(=O)c2c(ncn2CCN2CCN(c3ccccc3Cl)CC2)n(C)c1=O [MSC]
- cytotoxicity on rat TSMCs [1]: did not show cytotoxicity
- Maximum mean plasma concentration of MSC ([2]; MSC i.v. 2.0 mg/kg, 2 mg/kg): 447.76 ± 50.30 ng/mL and 447.76 ng/mL
- Minimum mean plasma concentration of MSC ([2]; MSC i.v. 2.0 mg/kg, 24 hr): 0.39 ng/mL
- Mean plasma concentration of MSC ([2]; MSC i.v.): 4.82 ± 1.98 ng/mL
- Maximum mean plasma concentration of MSC ([2]; MSC oral 20.0 mg/kg, 20 mg/kg): 205.92 ± 56.94 ng/mL and 205.92 ng/mL
- Minimum mean plasma concentration of MSC ([2]; MSC oral 20.0 mg/kg, 9 hr, 20 mg/kg): 3.74 ± 1.62 ng/mL and 3.74 ng/mL
- Mean plasma concentration of MSC ([2]; MSC oral): 94.26 ± 40.36 ng/mL
- AUC(0-inf) [2, 6]: 236.6 ng·h/mL
- C(0) [2, 6]: 515.8 ng/mL
- Cl [2, 6]: 140.9 mL/min/kg
- MRT [2, 6]: 120 min
- Vss [2, 6]: 17.2 L/kg
- Vz [2, 6]: 79.0 L/kg
- t1/2 ([2]; MSC single i.v. 2.0 mg/kg, male ICR mice, determined between 9 and 24 hours): 6.5** hr
- AUC(0-inf) [2, 7]: 462.5 ng·h/mL
- Bioavailability [2, 7]: 19.5%
- MAT (MRTPO − MRTIV) [2, 7]: 48 min
- MRT [2, 7]: 168 min
- Tmax [2, 7]: 15 min
- Cmax ([2]; MSC single oral 20.0 mg/kg, male ICR mice, 20 mg/kg): 205.9 ng/mL
- t1/2 ([2]; MSC single oral 20.0 mg/kg, male ICR mice, determined between 4 to 9 hours): 1.2** hr

SMILES: Cl.Cn1c(=O)c2c(ncn2CCN2CCN(c3ccccc3Cl)CC2)n(C)c1=O [Pulmodil, 7-[2-[4-(2-chlorobenzene)piperazinyl]ethyl]-1,3-dimethylxanthine.HCl]
- Cmax [3, 8]: 1785.0 ng/mL
- cytotoxicity on rat TSMCs [1]: did not show cytotoxicity
- cell survival rate ([1]; high concentrations (10 and 100 μM), rat TSMCs): ~100%
- highest mean plasma concentration of MSC ([4]; Pulmodil i.v. 2.0 mg/kg, 2 minutes): 1263.12 ± 181.44 ng/mL
- highest mean plasma concentration of MSC ([4]; Pulmodil i.v. 2.0 mg/kg, 5 minutes): 1171.077 ± 222.16 ng/mL
- highest mean plasma concentration of MSC ([4]; Pulmodil oral 20 mg/kg, 5 minutes): 954.32 ± 332.81 ng/mL
- highest mean plasma concentration of MSC ([4]; Pulmodil oral 20 mg/kg, 10 minutes): 806.85 ± 160.05 ng/mL
- highest mean plasma concentration of MSC ([4]; Pulmodil sublingual 3.6 mg/kg, 2 minutes): 22.48 ± 4.09 ng/mL
- highest mean plasma concentration of MSC ([4]; Pulmodil sublingual 3.6 mg/kg, 30 minutes): 18.24 ± 5.70 ng/mL
- Maximum mean plasma concentration of MSC ([5]; Pulmodil i.v. 2.0 mg/kg, 2 min, 2 mg/kg): 1263.1 ± 181.4 ng/mL and 1263.1 ng/mL
- Minimum mean plasma concentration of MSC ([5]; Pulmodil i.v. 2.0 mg/kg, 6 hr, 2 mg/kg): 0.7 ± 0.3 ng/mL and 0.7 ng/mL
- Maximum mean plasma concentration of MSC ([5]; Pulmodil oral 20 mg/kg, 5 min): 1294.1 ng/mL
- Minimum mean plasma concentration of MSC ([5]; Pulmodil oral 20 mg/kg, 9 hr): 5.9 ng/mL
- Mean plasma concentration of MSC ([5]; Pulmodil oral 20 mg/kg, 24 hr (text: 24- and 27-hour), 20 mg/kg): 0.2 ± 0.1 ng/mL and 0.2 ng/mL
- Mean plasma concentration of MSC ([5]; Pulmodil oral 20 mg/kg, within 2 minutes): 879.7 ng/mL
- AUC(0-inf) [5, 9]: 608 ng·h/mL
- Cl [5, 9]: 51.7 mL/min/kg
- MRT [5, 9]: 36 min
- Vss [5, 9]: 1.8 L/kg
- Vz [5, 9]: 3.4 L/kg
- t1/2 [5, 9]: 48 min
- AUC(0-inf) [5, 10]: 1142 ng·h/mL
- Cmax [5, 10]: 1390 ng/mL
- MAT (MRTPO − MRTIV) [5, 10]: 66 min
- MRT [5, 10]: 102 min
- Tmax [5, 10]: 6 min
- t1/2 [5, 10]: 198 min
- AUC(0-inf) [5, 11]: 42 ng·h/mL
- Bioavailability [5, 11]: 3.7%
- Cmax [5, 11]: 27 ng/mL
- MAT (MRTSL − MRTIV) [5, 11]: 108 min
- MRT [5, 11]: 144 min
- Tmax [5, 11]: 6 min
- t1/2 [5, 11]: 138 min
- Maximum mean plasma concentration of MSC ([5]; Pulmodil sublingual 3.6 mg/kg, 10 min): 25.9 ± 5.5 ng/mL and 25.9 ng/mL
- Minimum mean plasma concentration of MSC ([5]; Pulmodil sublingual 3.6 mg/kg, 9 hr): 0.7 ng/mL
- Mean plasma concentration of MSC ([5]; Pulmodil sublingual 3.6 mg/kg, within 2 minutes): 22.5 ± 4.1 ng/mL
- Bioavailability ([5]; route not stated, given as fraction): 0.2

SMILES: Cn1c(=O)c2c(ncn2CCN2CCN(c3ccccc3Cl)CC2)n(C)c1=O.O=C(O)CC(O)(CC(=O)O)C(=O)O [Pulmodil-1, 7-[2-[4-(2-chlorobenzene)piperazinyl]ethyl]-1,3-dimethylxanthine.citric acid]
- Maximum mean plasma concentration of MSC ([3]; Pulmodil-1 i.v. 2.0 mg/kg, 2 mg/kg): 1425.4 ± 138.2 ng/mL and 1425.4 ng/mL
- Minimum mean plasma concentration of MSC ([3]; Pulmodil-1 i.v. 2.0 mg/kg, 2 hr, 2 mg/kg): 2.7 ± 2.2 ng/mL and 2.7 ng/mL
- Maximum mean plasma concentration of MSC ([3]; Pulmodil-1 oral 20.0 mg/kg, 20 mg/kg): 683.2 ± 187.5 ng/mL and 683.2 ng/mL
- Minimum mean plasma concentration of MSC ([3]; Pulmodil-1 oral 20.0 mg/kg, 4 hr): 11.9 ng/mL
- AUC(0-inf) [3, 8]: 371.3 ng·h/mL
- Cl [3, 8]: 90 mL/min/kg
- Cmax [3, 8]: 1785.0 ng/mL
- Vss [3, 8]: 1.4 L/kg
- Vz [3, 8]: 2.0 L/kg
- t1/2 ([3]; Pulmodil-1 single i.v. 2.0 mg/kg, male CD-1 (Crl) mice, determined between 0.5 and 2 hours): 0.3 h
- AUC(0-inf) [3, 12]: 379.3 ng·h/mL
- Cmax [3, 12]: 683.0 ng/mL
- MAT (MRTPO − MRTIV) [3, 12]: 42 min
- Tmax [3, 12]: 18 min
- Bioavailability ([3]; Pulmodil-1 single oral 20.0 mg/kg, male CD-1 (Crl) mice, 20 mg/kg): 10% and 10.2%
- t1/2 ([3]; Pulmodil-1 single oral 20.0 mg/kg, male CD-1 (Crl) mice, determined between 0.5 to 4 hours): 1.0* hr
- cytotoxicity on rat TSMCs [1]: did not show cytotoxicity

Reference: patent US20100280040A1 (KAOHSIUNG MEDICAL UNIVERSITY, priority 2009, published 2010)
